Measurements reported in patent publication US5068253A, “Treatment of a microbial infection with drugs containing para-acetamidobenzoic acid” (priority 1990, dated 1991).
Several values for one entry are separate records, joined by “and”; a condition that tells them apart may be missing. Equal entries are not always repeated. Structures can show the parent of a compound that is named as a salt.

How the values were obtained:
P. carinii = assay: Drug inhibition assay: [3H]PABA incorporation into reduced folates by P. carinii organisms; assay type: cell-based, Pneumocystis carinii; settings: for activity at 10000 µM: drug 1 × 10^-2 M, 0 = total inhibition
Description: The following assay, used previously to assess drug activity against P. carinii or T. gondii [Kovacs et al., J. Infectious Diseases 160:312-320 (1989)], was used to test drugs for their ability to adversely affect the metabolism of pneumocystis and toxoplasma.
An animal model of Pneumocystis carinii pneumonia was used to obtain organisms. This model involves treating rats, usually Sprague-Dawley rats, with a corticosteroid, in the present case dexamethasone (1-2 mg/L of drinking water) for 6-10 weeks. Tetracycline is included in the water (1 mg/mL) to prevent bacterial superinfection. Such immunosuppressed rats will develop P. carinii pneumonia spontaneously, and P. carinii organisms are obtained by removing the lungs in a sterile manner, cutting up the lungs and disrupting them with a Stomacher (Tekmar), which makes a suspension of organisms and cells. The P. carinii organisms are then partially purified by Ficoll-Hypaque density gradient centrifugation, washed in phosphate buffered saline (PBS), and used in the following experiment.
For drug inhibition studies, organisms are incubated with drugs at varying concentrations for 2-h in paraaminobenzoic acid-free (PABA-free) and folate-free RPMI before pulsing with [^3 H]PABA.
Organisms are harvested after an 18-24 h pulse and washed twice in phosphate buffered saline (PBS). Folates are extracted as previously described [Allegra et al., J. Biol. Chem. 261:6478-6485 (1986)]. The organism pellet is heated at 100° C. for 1 min in 2% sodium ascorbate, pH 6.0, and 2% 2-mercaptoethanol; after centrifugation, the supernatant is treated with partially purified porcine kidney conjugase for 30 min at 37° C. to convert all folates to monoglutamates. After an additional boiling with sodium ascorbate and 2-mercaptoethanol, the folates are extracted into methanol using a C-18 cartridge (Sep-Pak, Waters Chromatography Division, Milford, Mass.) and concentrated under a stream of nitrogen.
The individual folates are resolved by high-performance liquid chromatography (HPLC) using a C8 μBondapak column (Waters Chromatography) under isocratic conditions; the running buffer is 15% ethanol and 85% Pic A (Waters Chromatography), pH 5.5 Radioactivity is determined by an in-line scintillation counter (Flow 1 Beta, model CR, Radiomatic Instruments, Tampa, Fla.). Unlabeled folates are included in each run as internal controls.
Results are presented as the percentage of total radiolabel incorporated into reduced folates compared with untreated controls.

[1] = target: T1, Dihydropteroate synthase (DHPS) (Pneumocystis carinii, UniProt P29251); assay: Catalytic DHPS assay, crude enzyme preparation from P. carinii; assay type: biochemical; settings: for inhibition at 1000 µM / inhibition at 100 µM / inhibition at 10 µM / Percent DHPS Inhibition: P. carinii, single runs; for inhibition at 1000 µM / inhibition at 100 µM / inhibition at 10 µM: read-out: Percent DHPS Inhibition
T1 construct: Enzyme preparations were made by resuspending P. carinii or T. gondii organisms in 1 ml PBS, sonicating to disrupt the organisms; endogenous in cells; host or cells: P. carinii organisms partially purified from lungs of dexamethasone-treated rats; supernatant of sonicate used as crude enzyme
T1 sequence (P29251 1-740): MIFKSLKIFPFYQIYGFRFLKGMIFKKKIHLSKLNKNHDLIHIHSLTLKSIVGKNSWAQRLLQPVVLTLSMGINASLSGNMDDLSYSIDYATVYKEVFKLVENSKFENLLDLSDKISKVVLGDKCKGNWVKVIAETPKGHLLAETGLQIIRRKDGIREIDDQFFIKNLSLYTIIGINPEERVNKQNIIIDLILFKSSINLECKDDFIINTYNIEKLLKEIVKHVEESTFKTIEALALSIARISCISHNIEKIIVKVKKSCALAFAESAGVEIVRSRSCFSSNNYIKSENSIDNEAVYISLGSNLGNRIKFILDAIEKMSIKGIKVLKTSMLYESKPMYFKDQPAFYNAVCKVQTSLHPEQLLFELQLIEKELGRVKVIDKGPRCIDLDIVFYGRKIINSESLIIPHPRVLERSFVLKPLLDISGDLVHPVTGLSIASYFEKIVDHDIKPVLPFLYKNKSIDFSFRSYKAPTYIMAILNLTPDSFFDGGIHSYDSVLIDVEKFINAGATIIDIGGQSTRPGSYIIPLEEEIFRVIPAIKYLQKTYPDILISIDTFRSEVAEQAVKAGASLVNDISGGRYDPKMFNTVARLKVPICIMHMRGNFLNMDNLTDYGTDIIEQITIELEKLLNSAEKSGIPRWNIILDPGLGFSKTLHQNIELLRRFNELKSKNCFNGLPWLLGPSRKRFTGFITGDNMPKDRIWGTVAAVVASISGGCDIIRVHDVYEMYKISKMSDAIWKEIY
Description: (§1) Dihydropteroate synthase (DHPS) is an enzyme of the de novo folate synthesis pathway which is known to be susceptible to sulfonamides. […] has a structural similarity to PABA (paraamino benzoic acid), one of the substrates of DHPS. To determine whether DHPS is the target for PAcBA, a catalytic DHPS assay as previously described [Allegra et al., J. Clin. Invest. 85:371-379 (1990)] was used.
(§2) Briefly, assay tubes contain 5 mM MgCl2, 5 mM DTT, 10 μM H2 PtCH2 OPP, 1 μM [^3 H]pABA (final sp act, 2 Ci/mmol), and 40 mM Tris/HCl, pH 8.3, in a total reaction volume of 100 μl. Various concentrations of inhibitors are added as needed. Enzyme preparations were made by resuspending P. carinii or T. gondii organisms in 1 ml PBS, sonicating to disrupt the organisms, and pelleting the cellular debris. The supernatant was saved and used as the crude enzyme preparation. Reactions are initiated by the addition of 50 μl of enzyme preparation. After a 30-min incubation at 37° C. the reaction tubes are placed on ice to terminate the reactions, and then spotted onto 3×30-cm strips of 3 MM chromatography paper (Whatman Laboratory Products Inc.). The strips are developed in a descending chromatography tank using an elution buffer of 0.1M KH2 PO4, pH 7.0. The origins containing the labeled products of the reaction are cut from the strips, placed in scintillation vials, and counted in a liquid scintillation counter (Packard Tri-Carb; Packard Instrument Co. Inc., Downers Grove, Ill.) 24 h after the addition of 9.5 ml of counting cocktail (3A70b; Research Products International Corp., Mt. Prospect, Ill.).
(§3) The results of the DHPS inhibition assay carried out on P. carinii (PC) and T. gondii (Toxo) using the indicated composition are shown below in Table II.

[2] = target: T2, Dihydropteroate synthase (DHPS) (Toxoplasma gondii, UniProt A0A7J6K300); assay: Catalytic DHPS assay, crude enzyme preparation from T. gondii; assay type: biochemical
T2 construct: crude supernatant of sonicated T. gondii RH organisms from mouse peritoneum; bifunctional HPPK-DHPS polypeptide
T2 sequence (A0A7J6K300 1-748): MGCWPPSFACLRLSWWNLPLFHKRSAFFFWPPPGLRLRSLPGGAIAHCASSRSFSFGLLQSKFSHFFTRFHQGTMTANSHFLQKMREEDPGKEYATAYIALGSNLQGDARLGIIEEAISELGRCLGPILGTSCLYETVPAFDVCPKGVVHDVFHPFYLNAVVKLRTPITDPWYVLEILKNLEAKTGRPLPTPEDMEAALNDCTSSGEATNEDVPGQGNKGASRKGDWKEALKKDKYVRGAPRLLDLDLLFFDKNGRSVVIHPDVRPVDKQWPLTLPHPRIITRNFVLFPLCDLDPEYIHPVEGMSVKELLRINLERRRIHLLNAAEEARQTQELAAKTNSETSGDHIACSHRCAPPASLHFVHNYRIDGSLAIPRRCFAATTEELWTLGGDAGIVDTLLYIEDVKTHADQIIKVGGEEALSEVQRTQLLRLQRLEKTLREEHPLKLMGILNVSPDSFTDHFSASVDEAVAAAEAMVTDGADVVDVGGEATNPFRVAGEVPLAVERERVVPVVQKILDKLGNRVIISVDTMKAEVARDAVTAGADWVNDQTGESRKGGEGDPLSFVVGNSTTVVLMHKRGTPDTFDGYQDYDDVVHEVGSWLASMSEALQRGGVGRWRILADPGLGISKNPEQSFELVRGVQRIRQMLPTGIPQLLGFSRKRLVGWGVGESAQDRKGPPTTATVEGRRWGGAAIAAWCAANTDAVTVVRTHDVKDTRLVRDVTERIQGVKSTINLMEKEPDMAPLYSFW
Description: The RH strain of Toxoplasma gondii were used in all experiments. Organisms are passed by intraperitoneal inoculation into Balb/c mice every 3 to 4 days. Organisms were harvested by lavaging the peritoneum of infected animals 3 to 4 days after inoculation. Organisms were resuspended in PBS, cells are removed by differential centrifugation, and organisms were then pelleted and utilized in the studies.
as §1, §2, §3

[3] = drug 1 × 10^-4 M, single test runs, 100 = no inhibition, 100 µM
[4] = drug 1 × 10^-5 M, single test runs, 100 = no inhibition, 10 µM
[5] = T. gondii, 1 × 10^-4 M, single runs, read-out: Percent DHPS Inhibition
[6] = T. gondii, 1 × 10^-5 M, single runs, read-out: Percent DHPS Inhibition
[7] = Pneumocystis carinii, single test runs, 100 = no inhibition, read-out: Results: % of Control (total radiolabel incorporated into reduced folates)
[8] = Pneumocystis carinii, drug 1 × 10^-4 M, single test runs, 100 = no inhibition, read-out: Results: % of Control (total radiolabel incorporated into reduced folates)
[9] = concentration of each value not resolvable: run has fewer values than the concentrations listed for the drug (1 × 10-2 to 1 × 10^-6 M; PAcBA also 3 × 10^-3 M), values of a run in order of falling concentration

Compound | Results: % of Control (total radiolabel incorporated into reduced folates) (P. carinii; [3]) | Results: % of Control (total radiolabel incorporated into reduced folates) (P. carinii; [4]) | inhibition at 1000 µM ([1]; 1 × 10^-3 M) [%] | inhibition at 100 µM ([1]; 1 × 10^-4 M) [%] | inhibition at 10 µM ([1]; 1 × 10^-5 M) [%] | inhibition at 100 µM [2, 5] [%] | inhibition at 10 µM [2, 6] [%] | activity at 10000 µM (P. carinii; [7]) [%] | activity at 100 µM (P. carinii; [8]) [%] | Results: % of Control (total radiolabel incorporated into reduced folates) (P. carinii; [9]) | Percent DHPS Inhibition ([1]; 1 × 10^-3 M) | Percent DHPS Inhibition ([1]; 1 × 10^-4 M) | Percent DHPS Inhibition ([1]; 1 × 10^-5 M) | further results
CC(O)CN(C)C (stereo not drawn) [1-dimethylamino-2-propanol, reference compound] | 100 % of Control and 71.3 % of Control | 95 % of Control and 65.4 % of Control | 81.7 | 91.6 | 100 | 93.6 | 100 |  |  |  |  |  |  | 
OC[C@H]1O[C@@H](n2cnc3c(O)ncnc32)[C@H](O)[C@@H]1O [Inosine, inosine, reference compound] |  |  | 100 | 100 | 100 |  |  | 57.5 | 69.8 | 61.9 % of Control and 57.6 % of Control and 100 % of Control |  |  |  | activity at 1000 µM (P. carinii; Pneumocystis carinii, drug 1 × 10^-3 M, single test runs, 100 = no inhibition, read-out: Results: % of Control (total radiolabel incorporated into reduced folates)): 100%
CC(=O)Nc1ccc(C(=O)O)cc1 [PAcBA as 1-dimethylamino-2-propanol salt, PAcBA salt of 1-dimethylamino-2-propanol] | 15 % of Control and 20 % of Control | 82 % of Control and 44 % of Control and 43 % of Control |  |  |  |  |  | 0 | 19 |  |  |  |  | Results: % of Control (total radiolabel incorporated into reduced folates) (P. carinii; drug 1 × 10^-3 M, single test runs, 100 = no inhibition, 1000 µM): 0 % of Control; Results: % of Control (total radiolabel incorporated into reduced folates) (P. carinii; drug 1 × 10^-6 M, single test runs, 100 = no inhibition, 1 µM): 100 % of Control and 67 % of Control and 74 % of Control; Potency of the salt relative to the free acid PAcBA against P. carinii (P. carinii; salt versus free acid): approximately 10 fold
CC(=O)Nc1ccc(C(=O)O)cc1 [PAcBA, p-acetamidobenzoic acid] |  |  | 14.3 |  |  | 21.4 | 68.4 |  |  |  | 16.6% and 22.2% | 37.9% and 52.6% and 62.1% | 70.2% and 100% and 92.2% | Inhibition of P. carinii (in words) (P. carinii; 1×10^-2 M, 3×10^-3 M, 1×10^-3 M): considerable inhibition; Inhibition of P. carinii (in words) (P. carinii; 1×10^-4 M): some inhibition; Inhibition of DHPS in P. carinii (in words) [1]: inhibition; Inhibition of DHPS activity in Toxoplasma gondii (in words) [2]: inhibited; inhibition at 1000 µM ([2]; T. gondii, 1 × 10^-3 M, single runs, read-out: Percent DHPS Inhibition): 5.1%; inhibition at 1 µM ([2]; T. gondii, 1 × 10^-6 M, single runs, read-out: Percent DHPS Inhibition): 83.4%
Isoprinosine [reference compound] |  |  |  |  |  |  |  |  |  | 100 % of Control | 35.6% | 87.4% | 100% | Inhibition of P. carinii (in words) (P. carinii; no concentration stated): has inhibition; Percent DHPS Inhibition ([2]; T. gondii, 1 × 10^-3 M, single runs): 7.8%; Percent DHPS Inhibition ([2]; T. gondii, 1 × 10^-4 M, single runs): 28.3%; Percent DHPS Inhibition ([2]; T. gondii, 1 × 10^-5 M, single runs): 76.5%; Percent DHPS Inhibition ([2]; T. gondii, 1 × 10^-6 M, single runs): 100%
